SMILES strings stand for the structures. Where “and” joins values, the source holds several entries; their conditions need not be identical. Equal entries are not always repeated. A value given as a limit tells only on which side of the number the result lay.

The target of the assay is T1, LPA1R (Homo sapiens, UniProt Q92633).
T1 construct: host or cells: LPA1R expressing cells (Millipore, GPCR Profiler)
T1 sequence (Q92633 whole entry): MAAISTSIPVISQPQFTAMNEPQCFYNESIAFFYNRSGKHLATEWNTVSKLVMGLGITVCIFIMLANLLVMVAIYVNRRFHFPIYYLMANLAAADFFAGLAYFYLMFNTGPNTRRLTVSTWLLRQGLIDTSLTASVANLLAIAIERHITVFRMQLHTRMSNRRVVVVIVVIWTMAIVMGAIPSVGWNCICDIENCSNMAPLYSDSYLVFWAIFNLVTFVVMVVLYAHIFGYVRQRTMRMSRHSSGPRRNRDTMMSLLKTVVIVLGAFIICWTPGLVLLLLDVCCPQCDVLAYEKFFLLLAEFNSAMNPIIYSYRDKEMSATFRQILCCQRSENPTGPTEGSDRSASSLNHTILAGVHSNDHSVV
Nature of the assay: LPA1R Ca2+ flux functional assay (antagonist mode, FLIPR). It is filed as cell-based. The following applies: inhibition of LPA-stimulated Ca2+ flux, LPA at EC80, LPA1R expressing cells (Millipore); read-out: LPA1 R Antagonist Activity. As for the experimental part:
Inhibition of LPA-stimulated Ca^2+ flux was used to assess compound potency using FLIPR technology in a 96 well plate format. The assay buffer used was a modified Hanks Balanced Salt Solution (HBSS) where HBSS was supplemented to contain 20 mM HEPES and 2.5 mM Probenecid at pH7.4 (Millipore, GPCR Profiler®). LPA1R expressing cells (Millipore) were plated and prepared 24 hours prior to assay of test articles. Ca^2+ ion flux was assessed from fluorescence of a Fluo-based No Wash Ca^2+ dye. Antagonist data are generated from plates with LPA concentrations sufficient to generate 80% efficacy [EC80]. Percentage inhibition was calculated from a reduction of efficacy according to concentration of compounds of Formula I-VI. For dose responses the inhibition data was used to calculate compound IC50. The agonist assay was conducted on a FLIPR^TETRA instrument where the test compound(s), vehicle controls, and reference agonist were added to the assay plate after a fluorescence baseline was established. The agonist assay was a total of 180 seconds and was used to assess each compound's ability to activate each GPCR assayed. Upon completion of the agonist assay, the assay plate was removed from the FLIPR^TETRA and incubated at 25° C. for seven (7) minutes. After the incubation period, the assay plate was placed back in the FLIPR^TETRA and the antagonist assay was initiated. Using EC80 potency values determined during the agonist assay, all pre-incubated sample compound wells were challenged with EC80 concentration of reference agonist after establishment of a fluorescence baseline. The antagonist assay was conducted using the same assay plate that was used for the agonist assay. The antagonist assay was conducted on a FLIPR^TETRA instrument where 9 vehicle controls and EC80 concentration of reference agonist were added to appropriate wells. The antagonist assay was a total of 180 seconds and was used to assess each compound's ability to inhibit each GPCR assayed. All assay plate data were subjected to appropriate baseline corrections. After baseline corrections were applied, maximum fluorescence values were exported and data processed to calculate percentage activation (relative to Emax reference agonist and vehicle control values), percentage inhibition (relative to EC80 and vehicle control values), and additional statistical values (i.e. Z′, percentage variation between replicate data values) to assess the quality of each plate. Where assay plate data were rejected, additional experiments were conducted. All dose response curves were generated using GraphPad Prism. The curves were fit by utilizing “Sigmoidal Dose Response (Variable Slope)” equation where the bottom parameter was fixed to “0.” Where appropriate, the top parameter was fixed to “100” to better predict potency values when a full curve was not generated by the concentrations assayed.
On the technique in general: Calcium assays in cells follow changes in intracellular calcium, usually with a dye or a luminescent sensor.
As to `Cc1noc(-c2ccc(C(=O)N[C@H](Cc3ccc(Br)cc3)C(=O)O)cc2)c1NC(=O)O[C@H](C)c1ccccc1Cl` [Example 25, (R)-3-(4-Bromo-phenyl)-2-(4-{4-[(R)-1-(2-chloro-phenyl)-ethoxycarbonylamino]-3-methyl-isoxazol-5-yl}-benzoylamino)-propionic Acid], the IC50 is below 300 nM.

Regarding `Cc1noc(-c2ccc(C(=O)N[C@H](Cc3ccccc3F)C(=O)O)cc2)c1NC(=O)O[C@H](C)c1ccccc1Cl` [Example 26, (R)-2-(4-{4-[(R)-1-(2-Chloro-phenyl)-ethoxycarbonylamino]-3-methyl-isoxazol-5-yl}-benzoylamino)-3-(2-fluoro-phenyl)-propionic Acid], the IC50 was below 300 nM.

Turning to `Cc1ccc(C[C@@H](NC(=O)c2ccc(-c3onc(C)c3NC(=O)O[C@H](C)c3ccccc3Cl)cc2)C(=O)O)cc1` [Example 27, (R)-2-(4-{4-[(R)-1-(2-Chloro-phenyl)-ethoxycarbonylamino]-3-methyl-isoxazol-5-yl}-benzoylamino)-3-p-tolyl-propionic Acid], the IC50 was below 300 nM.

`Cc1noc(-c2ccc(C(=O)N[C@H](Cc3ccc(C(F)(F)F)cc3)C(=O)O)cc2)c1NC(=O)O[C@H](C)c1ccccc1Cl` [Example 28, (R)-2-(4-{4-[(R)-1-(2-Chloro-phenyl)-ethoxycarbonylamino]-3-methyl-isoxazol-5-yl}-benzoylamino)-3-(4-trifluoromethyl-phenyl)-propionic Acid]: the IC50 is below 300 nM.

`Cc1noc(-c2ccc(C(=O)N[C@H](Cc3ccc(C#N)cc3)C(=O)O)cc2)c1NC(=O)O[C@H](C)c1ccccc1Cl` [Example 29, (R)-2-(4-{4-[(R)-1-(2-Chloro-phenyl)-ethoxycarbonylamino]-3-methyl-isoxazol-5-yl}-benzoylamino)-3-(4-cyano-phenyl)-propionic Acid]: the IC50 was 1000 to 50000 nM.

`Cc1cnn(-c2ccc(C(=O)N[C@H](Cc3ccccc3)C(=O)O)cc2)c1NC(=O)O[C@H](C)c1ccccc1Cl` [Example 30, (R)-2-(4-{5-[(R)-1-(2-Chloro-phenyl)-ethoxycarbonylamino]-4-methyl-pyrazol-1-yl}-benzoylamino)-3-phenyl-propionic Acid]: the IC50 is > 50000 nM and 1000 to 50000 nM.

With `Cc1noc(-c2ccc(CN[C@H](Cc3ccccc3)C(=O)O)cc2)c1NC(=O)O[C@H](C)c1ccccc1` [Example 31, (R)-2-{4-[3-Methyl-4-((R)-1-phenyl-ethoxycarbonylamino)-isoxazol-5-yl]-benzylamino}-3-phenyl-propionic Acid], the IC50 is below 300 nM.

Consider `Cc1noc(-c2ccc(CN[C@H](Cc3ccccc3F)C(=O)O)cc2)c1NC(=O)O[C@H](C)c1ccccc1` [Example 32, (R)-3-(2-Fluoro-phenyl)-2-{4-[3-methyl-4-((R)-1-phenyl-ethoxycarbonylamino)-isoxazol-5-yl]-benzylamino}-propionic Acid], for which the IC50 is below 300 nM.

In the case of `Cc1noc(-c2ccc(CN[C@H](Cc3ccc(C(F)(F)F)cc3)C(=O)O)cc2)c1NC(=O)O[C@H](C)c1ccccc1` [Example 33, (R)-2-{4-[3-Methyl-4-((R)-1-phenyl-ethoxycarbonylamino)-isoxazol-5-yl]-benzylamino}-3-(4-trifluoromethyl-phenyl)-propionic Acid], the IC50 was below 300 nM.

`Cc1noc(-c2ccc(CN[C@H](CC3CC3)C(=O)O)cc2)c1NC(=O)O[C@H](C)c1ccccc1` [Example 34, (R)-3-Cyclopropyl-2-{4-[3-methyl-4-((R)-1-phenyl-ethoxycarbonylamino)-isoxazol-5-yl]-benzylamino}-propionic acid]: the IC50 is below 300 nM.

On to `Cc1noc(-c2ccc(CN[C@H](Cc3ccccc3Cl)C(=O)O)cc2)c1NC(=O)O[C@H](C)c1ccccc1` [Example 35, (R)-3-(2-Chloro-phenyl)-2-{4-[3-methyl-4-((R)-1-phenyl-ethoxycarbonylamino)-isoxazol-5-yl]-benzylamino}-propionic Acid], for which the IC50 is below 300 nM.

Turning to `Cc1noc(-c2ccc(CN[C@H](Cc3ccc(Cl)cc3)C(=O)O)cc2)c1NC(=O)O[C@H](C)c1ccccc1` [Example 36, (R)-3-(4-Chloro-phenyl)-2-{4-[3-methyl-4-((R)-1-phenyl-ethoxycarbonylamino)-isoxazol-5-yl]-benzylamino}-propionic Acid], the IC50 was below 300 nM.

As for `Cc1noc(-c2ccc(CN[C@H](Cc3ccccc3)C(=O)O)cc2)c1NC(=O)O[C@H](C)c1ccccc1Cl` [Example 37, (R)-2-(4-{4-[(R)-1-(2-Chloro-phenyl)-ethoxycarbonylamino]-3-methyl-isoxazol-5-yl}-benzylamino)-3-phenyl-propionic Acid], the IC50 was below 300 nM.

With `Cc1noc(-c2ccc(CNC(Cc3ccccc3F)C(=O)O)cc2)c1NC(=O)OC(C)c1ccccc1Cl` [Example 38, (R)-2-(4-{4-[(R)_1-(2-Chloro-phenyl)-ethoxycarbonylamino]-3-methyl-isoxazol-5-yl}-benzylamino)-3-(2-fluoro-phenyl)-propionic Acid], the IC50 is below 300 nM.

On to `Cc1noc(-c2ccc(CN[C@H](Cc3ccc(C(F)(F)F)cc3)C(=O)O)cc2)c1NC(=O)O[C@H](C)c1ccccc1Cl` [Example 39, (R)-2-(4-{4-[(R)-1-(2-Chloro-phenyl)-ethoxycarbonylamino]-3-methyl-isoxazol-5-yl}-benzylamino)-3-(4-trifluoromethyl-phenyl)-propionic Acid], for which the IC50 was below 300 nM.

On to `Cc1noc(-c2ccc(CN[C@H](Cc3ccccc3Cl)C(=O)O)cc2)c1NC(=O)O[C@H](C)c1ccccc1Cl` [Example 40, (R)-3-(2-Chloro-phenyl)-2-(4-{4-[(R)-1-(2-chloro-phenyl)-ethoxycarbonylamino]-3-methyl-isoxazol-5-yl}-benzylamino)-propionic Acid], for which the IC50 is below 300 nM.

Consider `Cc1noc(-c2ccc(CN[C@H](CC3CC3)C(=O)O)cc2)c1NC(=O)O[C@H](C)c1ccccc1Cl` [Example 41, (R)-2-(4-{4-[(R)-1-(2-Chloro-phenyl)-ethoxycarbonylamino]-3-methyl-isoxazol-5-yl}-benzylamino)-3-cyclopropyl-propionic Acid], for which the IC50 was below 300 nM.

As for `Cc1noc(-c2ccc(COC(Cc3ccccc3)C(=O)O)cc2)c1NC(=O)O[C@H](C)c1ccccc1` (stereo partly drawn) [Example 42, 2-{4-[3-Methyl-4-((R)-1-phenyl-ethoxycarbonylamino)-isoxazol-5-yl]-benzyloxy}-3-phenyl-propionic Acid], the IC50 is below 300 nM.

As to `Cc1noc(-c2ccc(COC(Cc3ccccc3)C(=O)O)cc2)c1NC(=O)O[C@H](C)c1ccccc1` (stereo partly drawn) [Example 43, 2-{4-[3-Methyl-4-((R)-1-phenyl-ethoxycarbonylamino)-isoxazol-5-yl]-benzyloxy}-3-phenyl-propionic Acid], the IC50 fell in the range of 300 to 1000 nM.

As to `CC(OC(=O)Nc1c(C#N)cnn1-c1ccc(-c2ccc(CC(=O)O)cc2)cc1)c1ccccc1Cl` (stereo not drawn) [Example 46, 2-[4-[4-[5-[1-(2-chlorophenyl)ethoxycarbonylamino]-4-cyano-pyrazol-1-yl]phenyl]phenyl]acetic Acid], the IC50 is 1000 to 50000 nM.

Turning to `Cc1c(NC(=O)O[C@H](C)c2ccccc2)c(-c2ccc(-c3ccc(C4(C(=O)O)CC4)cc3)cc2)nn1C` [Example 47, (R)-1-[4-[4-[1,5-dimethyl-4-(1-phenylethoxycarbonylamino)pyrazol-3-yl]phenyl]phenyl]cyclopropane Carboxylic Acid], the IC50 was 300 to 1000 nM.

As to `Cc1nn(C)c(-c2ccc(-c3ccc(C4(C(=O)O)CC4)cc3)cc2)c1NC(=O)O[C@H](C)c1ccccc1` [Example 48, (R)-1-[4-[4-[2,5-dimethyl-4-(1-phenylethoxycarbonylamino)pyrazol-3-yl]phenyl]phenyl]cyclopropane Carboxylic Acid], the IC50 was 1000 to 50000 nM.

With `C[C@@H](OC(=O)Nc1c(F)cnn1-c1ccc(-c2ccc(C3(C(=O)O)CC3)c(F)c2)cc1)c1ccccc1Cl` [Example 49, (R)-1-(4′-{5-[1-(2-Chloro-phenyl)-ethoxycarbonylamino]-4-fluoro-pyrazol-1-yl}-3-fluoro-biphenyl-4-yl)-cyclopropanecarboxylic Acid], the IC50 was below 300 nM.

Turning to `C[C@@H](OC(=O)Nc1c(F)cnn1-c1ccc(-c2ccc(C3(C(=O)O)CC3)cc2F)cc1)c1ccccc1Cl` [Example 50, (R)-1-(4′-{5-[1-(2-Chloro-phenyl)-ethoxycarbonylamino]-4-fluoro-pyrazol-1-yl}-2-fluoro-biphenyl-4-yl)-cyclopropanecarboxylic Acid], the IC50 is below 300 nM.

Values taken from US11427552B2, “Heterocyclic compounds useful in the treatment of disease” (EPIGEN BIOSCIENCES, INC., priority 2013, dated 2022).
